# From publication PMC10780275, “Evaluation of Anti-Trypanosoma cruzi Activity of Chemical Constituents from Baccharis sphenophylla Isolated Using High-Performance Countercurrent Chromatography” (Molecules, 2023)
# Read-outs that look alike come from different tables or passages of the source.
# What was measured:
# [1] = Cytotoxicity against mammalian NCTC cells (MTT assay, 48 h); type: cell-based; conditions: mouse, NCTC murine fibroblasts, highest tested concentration 200 μM, read-out: NCTC Mammalian Cell CC50 (μM) ± SD
# Procedure: (§1) NCTC cells (clone 929, ATCC) were cultured in RPMI-1640 supplemented with 10% of fetal bovine serum (FBS), at 37 °C within a 5% CO2-humidified incubator. To collect peritoneal macrophages, the abdominal cavity of female BALB/c mice was rinsed with an RPMI-1640 medium, containing 10% FBS. These macrophages were then cultured overnight at 37 °C in a 5% CO2-humidified incubator. Trypanosoma cruzi trypomastigotes (Y strain) were maintained within Rhesus monkey kidney epithelial cells (LLC-MK2) cells using an RPMI-1640 medium supplemented with 2% FBS, and the incubation took place at 37 °C with 5% CO2 and humidity.
# The determination of CC50 (50% cytotoxic concentration) values for compounds 1–8 was conducted using NCTC cells (L929 clone). These cells were seeded at a density of 6 × 10^4 cells per well in 96-well plates (Thermo Fisher). The cells were then exposed to a series of compound dilutions, ranging from 200 to 1.56 µM, and incubated for 48 h at 37 °C within a 5% CO2-equipped incubator. The viability of the cells and CC50 values were determined using 3-(4,5-dimethylthiazol-2-yl)-2,5-diphenyltetrazolium bromide (MTT) assay. Subsequently, the absorbance was measured at 570 nm using the FilterMax F5 instrument from Molecular Devices. The selectivity index (SI) was determined as the ratio between the CC50 against NCTC cells and the EC50 against trypomastigotes or amastigotes.
# (§2) The CC50 and EC50 values were derived through the analysis of sigmoidal dose–response curves using GraphPad Prism 6.0 software. The samples were subjected to duplicate testing, and the experiments were replicated a minimum of two times.
# T. cruzi amastigote = experiment: Activity against intracellular amastigotes of T. cruzi within infected macrophages (Giemsa, light microscope, 48 h); type: cell-based, Trypanosoma cruzi (Y strain); conditions: for EC50: Trypanosoma cruzi, Peritoneal macrophage, in Mus musculus, read-out: T. cruzi Amastigote EC50 (μM) ± SD
# Description: The experimental animals were sourced from the animal breeding facility located at Instituto Adolfo Lutz in São Paulo State, Brazil. Peritoneal macrophages were extracted from female BALB/c mice for intracellular experiments, while male BALB/c mice were utilized to sustain T. cruzi. These animals were provided unlimited access to both water and food, residing in sterilized enclosures within a meticulously regulated environment. All procedures were previously approved by the Animal Ethics Commission of Instituto Adolfo Lutz.
# as §1
# The EC50 values for compounds 1–8 against intracellular amastigotes of T. cruzi were determined within infected macrophages. Macrophages, obtained as detailed in item 4.9, were seeded onto a 16-well chamber slide (NUNC plate, Thermo Fisher, Waltham, MA, USA) at a density of 1 × 10^5 cells per well. Subsequently, these cell cultures were incubated overnight at 37 °C in a humidified incubator containing 5% CO2. Trypomastigotes, previously derived from infected LLC-MK2 cells, underwent washing in an RPMI-1640 medium, were quantified, and were then employed to infect the macrophages at a concentration of 1 × 10^6 trypomastigotes per well. Following a 2 h infection period, any non-internalized trypomastigotes were eliminated by rinsing with an RPMI medium. The compounds were subsequently exposed to the infected macrophages for 48 h at 37 °C within a 5% CO2 environment. A range of serial dilutions (ranging from 30.00 to 1.87 μM) were used for the incubation of compounds, and benznidazole was utilized as the standard drug. At the final stage of the experiment, the chamber slides were fixed using MeOH and stained with Giemsa before being assessed under a light microscope (Thermo EVOS M5000).
# as §2
# T. cruzi trypomastigote = experiment: Activity against trypomastigote forms of T. cruzi (resazurin viability, 24 h); type: cell-based, Trypanosoma cruzi (Y strain); conditions: trypomastigotes, serial dilutions 1.7 to 150 μM; for EC50: Trypanosoma cruzi, read-out: T. cruzi Trypomastigote EC50 (μM) ± SD
# Procedure: as §1
# Tests of the activity from compounds 1–8 against the trypomastigote form of T. cruzi was performed, according to procedures previously reported. Trypomastigotes, in a concentration of 1 × 10^6 parasites/well, were seeded in 96-well plates and incubated with the tested compounds, alongside the standard drug benznidazole, in serial dilutions ranging from 1.7 to 150 μM, for 24 h at 37 °C in a 5% CO2 incubator. Subsequently, 20 μL of 10% resazurin was added, in order to determine cell viability. Absorbance was read in a plate spectrofluorometer Filter Max F5 Multi-Mode Microplate Reader at 570 nm. Untreated cells were used as negative controls, and cells treated with benznidazole were used as positive controls. The 50% effective concentration (EC50) against trypomastigote forms was determined by the regression of a sigmoid dose–response curve expressed in μM.
# as §2
# [2] = NCTC cells (clone L929) fibroblasts
# [3] = intracellular amastigotes in BALB/c peritoneal macrophages, serial dilutions 30.00 to 1.87 μM
T. cruzi Amastigote EC50 (μM) ± SD (T. cruzi amastigote; [3]),EC50 (T. cruzi trypomastigote),EC50 (T. cruzi amastigote; [3]),Structure (SMILES),"CC50 at 48 h [1, 2]",CC50 at 48 h [1],T. cruzi Trypomastigote EC50 (μM) ± SD (T. cruzi trypomastigote),EC50 (T. cruzi amastigote)
inactive,2.9 ± 1.5 µM,,"C[C@H]1CC=C2C(CO)(CO)CCC[C@]2(C)[C@@H]1CC[C@H](CCO)COC(=O)/C=C/c1ccc(O)cc1 [Compound 2, gaudichaudol C]",> 200 µM,,,
inactive,20.1 ± 1.5 µM,,"COC1C[C@@H](CC[C@@H]2[C@@H](C)CC=C3C(CO)(CO)CCC[C@@]32C)CO1 (relative stereo) [Compound 1, 15,16-epoxy-18,19-dihydroxy-16-methoxy-syn-labd-5-ene]",> 200 µM,,,
,18.7 ± 4.1 µM,5.5 ± 2.2 µM,"O=C(Cn1ccnc1[N+](=O)[O-])NCc1ccccc1 [Benznidazole, benznidazole, reference compound]",> 200 µM,,,
,,2.7 ± 0.2 µM,"COc1c(O)cc2oc(-c3ccc(O)c(O)c3)cc(=O)c2c1O [Compound 5, Eupafolin]",,,no activity,
,,,"COc1c(O)cc2oc(-c3ccc(O)cc3)cc(=O)c2c1O [Compound 4, Hispidulin]",,> 200 µM,no activity,12.8 ± 0.3 µM

Structure (SMILES),T. cruzi Amastigote EC50 (μM) ± SD (T. cruzi amastigote; [3]),EC50 (T. cruzi trypomastigote),EC50 (T. cruzi amastigote; [3]),"CC50 at 48 h [1, 2]",CC50 at 48 h [1],T. cruzi Trypomastigote EC50 (μM) ± SD (T. cruzi trypomastigote),EC50 (T. cruzi amastigote)
"C=C1C[C@@]23CC[C@H]4[C@@](C)(CCC[C@@]4(C)C(=O)O)[C@@H]2CC[C@@H]1C3 [Compound 3, Ent-kaur-16-en-19-oic acid]",inactive,10.6 ± 4.4 µM,,,> 200 µM,,
